Source: patent publication US20250059165A1, “PIPERIDINYLPYRIDINYLCARBONITRILE DERIVATIVES AS INHIBITORS OF GLUTAMINYL-PEPTIDE CYCLOTRANSFERASE AND GLUTAMINYL-PEPTIDE CYCLOTRANSFERASE LIKE PROTEIN” (Boehringer Ingelheim International GmbH, priority 2023, published 2025)

How the values were obtained:
[1] = biological target: T1, QPCTL (Homo sapiens, UniProt Q9NXS2); experiment: Assay A: biochemical QPCTL activity assay (MALDI-TOF MS, CD47 peptide substrate); conditions: 0.5 nM enzyme, 10 μM CD47 peptide substrate; read-out: Inhibition of QPCTL: IC50
T1 construct: made in house
Method: (§1) QPCT or QPCTL dependent conversion of N-terminal glutamine to pyroglutamate of CD47 was monitored via MALDI-TOF MS. Test compounds were dissolved in 100% DMSO and serially diluted into clear 1,536-well microtiter plates. […] The plates were incubated for 10 min in a humidified incubator at 24° C. Subsequently, 2.5 μL of CD47 peptide substrate surrogate (^19[…]^33) was added to each well (final concentration: 10 μM for QPCTL/20 μM for QPCT). […] The plates were sealed with an adhesive foil, mixed for 30 s at 1,000 rpm and stored at room temperature until preparation of the MALDI target plates. MALDI target plates were prepared as described previously. […] QPCT or QPCTL activity was monitored by calculating the ratio between product and internal standard signals followed by normalization to high (100% activity) and low (0% activity) controls. Determination of compound potencies was obtained by fitting the dose-response data to a four-parameter logistical equation.

[2] = Assay C: permeability in CACO-2 cells; format: in vitro ADME; conditions: human, pH 7.2; for efflux ratio: Caco-2, Permeability B-A/Permeability A-B; for Papp A→B: Caco-2, apical to basolateral
Method: Caco-2 cells (1−2×10^5 cells/1 cm^2 area) are seeded on filter inserts (Costar transwell polycarbonate or PET filters, 0.4 µm pore size) and cultured (DMEM) for 10 to 25 days. Compounds are dissolved in appropriate solvent (like DMSO, 1-20 mM stock solutions). […] The transport solution (TL) is applied to the apical or basolateral donor side for measuring A-B or B-A permeability (3 filter replicates), respectively. Samples are collected at the start and end of experiment from the donor and at various time intervals for up to 2 hours also from the receiver side for concentration measurement by HPLC-MS/MS or scintillation counting. Sampled receiver volumes are replaced with fresh receiver solution. Efflux Ratio (ER)=Permeability B-A/Permeability A-B

[3] = biological target: T2, QPCT (Homo sapiens, UniProt Q16769); experiment: Assay A: biochemical QPCT activity assay (MALDI-TOF MS, CD47 peptide substrate); conditions: 0.5 nM enzyme, 20 μM CD47 peptide substrate; read-out: Inhibition of QPCT: IC50
T2 construct: purchased Origine (OriGene) TP700028
Method: as §1

[4] = test system: SIRPα signalling induced by A549 cells; experiment: Assay B: SIRPα signalling assay using A549 cells; format: cell-based; conditions: Homo sapiens, 48 h compound incubation, Jurkat PathHunter SIRPαV1 reporter cells, read-out: Inhibition of SIRPα signalling induced by A549 cells: IC50
Method: (§2) Two cell types are independently used: the Raji cell line (lymphoblast-like human cell line derived from B lymphocytes from a Burkitt's lymphoma patient in 1963) and A549 cells (adenocarcinomic human alveolar basal epithelial cells).
(§3) Test compounds were dissolved in 100% DMSO and serially diluted into a white 384-well microtiter cell culture plate (PerkinElmer #60076780 in case of Raji assay; PDL-coated plates Greiner #781945 in case of A549 assay). 5000 Raji cells (ATCC #CC86) or 5000 A549 cells (ATCC #CCL-185) in Assay Complete Cell Plating reagent 30 (DiscoverX 93-0563R30B) were added per well. The assay plate was incubated for 48 h at 37° C., 95% humidity and 5% CO2. 15000 reporter cells (Jurkat PathHunter SIRPαV1, DiscoverX #93-1135C19) were added to each well, and the plate was incubated for 5 h at 37° C., 95% humidity and 5% CO2. Bioassay reagent 1 of the PathHunter Bioassay detection kit (DiscoverX 93-0001) was added to each well of the plate using a multichannel pipette followed by a 15 min incubation at room temperature. Afterwards bioassay reagent 2 was added followed by […] incubation at room temperature (incubation in the dark). The analysis of the data was performed using the luminescence signal generated by beta-galactosidase in the PathHunter reporter cell line. The luminescence measurement was done using a Pherastar Multi-Mode Reader. Dose-response curves & IC50 data were calculated with 4-parameter sigmoidal dose response formula.

[5] = test system: SIRPα signalling induced by Raji cells; experiment: Assay B: SIRPα signalling assay using Raji cells; format: cell-based; conditions: Homo sapiens, 48 h compound incubation, Jurkat PathHunter SIRPαV1 reporter cells, read-out: Inhibition of SIRPα signalling induced by Raji cells: IC50
Method: as §2, §3

T2 sequence (Q16769 29-361): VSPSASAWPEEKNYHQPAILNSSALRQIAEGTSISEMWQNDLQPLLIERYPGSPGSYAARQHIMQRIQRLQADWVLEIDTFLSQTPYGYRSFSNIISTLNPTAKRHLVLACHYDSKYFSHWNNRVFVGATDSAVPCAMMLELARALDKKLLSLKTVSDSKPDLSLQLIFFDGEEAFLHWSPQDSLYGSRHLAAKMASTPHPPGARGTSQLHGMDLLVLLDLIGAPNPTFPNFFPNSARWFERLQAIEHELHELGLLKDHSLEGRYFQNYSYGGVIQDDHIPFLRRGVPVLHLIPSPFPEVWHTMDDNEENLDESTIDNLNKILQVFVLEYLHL
T1 sequence (Q9NXS2 whole entry): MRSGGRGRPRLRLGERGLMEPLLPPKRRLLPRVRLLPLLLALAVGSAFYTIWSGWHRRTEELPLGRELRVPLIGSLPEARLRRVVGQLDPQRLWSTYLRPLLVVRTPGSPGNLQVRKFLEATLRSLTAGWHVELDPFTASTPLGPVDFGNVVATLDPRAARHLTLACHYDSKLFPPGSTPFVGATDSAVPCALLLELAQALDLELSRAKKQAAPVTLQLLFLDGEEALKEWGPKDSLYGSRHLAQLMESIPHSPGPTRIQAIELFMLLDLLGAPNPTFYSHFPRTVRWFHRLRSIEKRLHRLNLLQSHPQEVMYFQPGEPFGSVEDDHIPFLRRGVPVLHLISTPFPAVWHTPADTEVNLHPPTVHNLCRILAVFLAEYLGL

**Q.** For `Cn1cnnc1C1(F)CCN(c2c(C#N)ccnc2-c2cnc3nc(-c4cccc(Cl)c4)ccn23)CC1` [Example 33], which IC50 [1] is on record?
**A.** The IC50 was 1 nM.

**Q.** And the efflux ratio [2]?
**A.** Its efflux ratio is 6.2.

**Q.** What about the Papp A→B [2] of the same compound?
**A.** The Papp A→B was 13 ×10⁻⁶ cm/s.

**Q.** What about the IC50 [3] of the same compound?
**A.** Its IC50 is 2 nM.

**Q.** And the IC50 [4]?
**A.** Its IC50 is 30 nM.

**Q.** What about the IC50 [5] of the same compound?
**A.** Its IC50 is 53 nM.

**Q.** Which results are given for `COc1cnc(-c2ccc(F)nc2)c(N2CCC(F)(c3nncn3C)CC2)c1C#N` [Example 7]?
**A.** IC50 [1]: 8 nM; efflux ratio [2]: 5.5; Papp A→B [2]: 15 ×10⁻⁶ cm/s; IC50 [3]: 12 nM; IC50 [4]: 200 nM; IC50 [5]: 568 nM
